Experimental data published in patent US9028845B2, “Chimeric immunomodulatory compounds and methods of using the same-IV” (Dynavax Technologies Corporation, priority 2001, dated 2015).

How the values were obtained:
mice = test: Serum cytokines (IL-12 p40, IL-6, TNF-α) after subcutaneous injection in mice; format: in vivo; settings: 20 ug subcutaneous, blood 2 hours later
Procedure: Blood was collected 2 hours later. For the LPS positive control group, mice were injected intraperitoneally with a 200 ul volume, and blood was collected 1.5 hours later (i.e., at the peak of LPS induced TNF-α activity). The blood was clotted and the serum was prepared and stored at −80° C. until assayed. Serum cytokines were assayed using Biosource cytoscreen kits for TNF-α and Pharmingen antibody pairs for mIL-6 and mIL-12. All samples were assayed in duplicate.

CD19+ B cells = test: Human B cell proliferation assay (3H-thymidine incorporation); settings: 2 μg/ml
mouse lung = test: Induction of immune-associated genes in the mouse lung after intranasal treatment (quantitative PCR); format: in vivo, BALB/c mice; settings: 20 ug intranasal, 6 hrs; vs P-7 treated mice
Procedure: The genes evaluated included genes encoding cytokines, chemokines, cell surface molecules, transcription factors, metalloproteases, and other molecules. The study was performed at Northview Pacific Laboratories (Hercules, Calif.) with 6-8 week old female BALB/c mice from Jackson Labs (Bar Harbor, Me.). […] Therefore, at 6 hrs the lungs were harvested and snap-frozen in liquid nitrogen and stored at −80° C. for later use. Total RNA was isolated using RNeasy mini kits (Qiagen Inc., Valencia, Calif.). The RNA samples were DNAse-treated (Roche Diagnostics, Mannheim, Germany) and converted into cDNA using Superscript II Rnase H-Reverse Transcriptase (Invitrogen, Rockville Md.) as described in Scheerens et al., 2001, Eur. J. of Immunology 31:1465-74. The cDNA samples were pooled per group and in each pooled sample the expression of mRNA of 75 genes was measured using real-time quantitative PCR (ABI Prism 5700, Perkin Elmer Applied Biosystems) and syber green (Qiagen Inc.). In addition to the genes of interest, in each sample the mRNA expression of a housekeeping gene was measured (HPRT or ubiquitin). In order to correct for the amount of RNA in each sample, all data were calculated relative to the expression of the housekeeping gene.

mouse splenocytes = test: Mouse splenocyte cytokine secretion (IL-6, IL-12, IFN by ELISA); format: cell-based, BALB/c mice; settings: 24 h
Procedure: Polynucleotides and chimeric compounds were tested for immunostimulatory activity on mouse splenocytes. Immunostimulation was assessed by measurement of cytokine secretion into the culture media. Cytokine levels in the culture supernatant were determined by enzyme-linked immunosorbent assay (ELISA) tests.
Cells were isolated and prepared using standard techniques. Spleens of 8 to 20 week-old BALB/c mice were harvested and the splenocytes isolated using standard teasing and treatment with ACK lysing buffer from BioWhittaker, Inc. Four spleens were pooled in this experiment. Isolated cells were washed in RPMI 1640 media supplemented with 2% heat-inactivated fetal calf serum (FCS), 50 μM 2-mercaptoethanol, 1% penicillin-streptomycin, and 2 mM L-glutamine and resuspended at approximately […] in 10% FCS/RPMI (RPMI 1640 media with 10% heat-inactivated FCS, 50 μM 2-mercaptoethanol, 1% penicillin-streptomycin, and 2 mM L-glutamine).
Cell cultures were set up in triplicate with approximately 7×10^5 cells/well in a 96-well flat microtiter plate in 100 μl 10% FCS/RPMI with the cells allowed to rest for at lest 1 hour after plating. The indicated test compounds were incubated (at the indicated concentrations) for 24 hours at 37° C. Cell supernatants were harvested and frozen at −80° C. Cytokine production by the cells was determined by ELISAs, as shown in 19.

PBMCs = test: Human PBMC proliferation assay (3H-thymidine incorporation); format: cell-based; settings: Experiment A; for mean cpm: 2 μg/ml
[1] = B cells, Donor 146, Experiment A
[2] = B cells, Donor 147, Experiment A
[3] = B cells, donor 194, Experiment B

“5′-TGACTGTGAACGTTCGAGATGA-3′ (SEQ ID NO: 2) [Compound P-6, reference compound]” was tested, and the “induction of serum IL-12 p40, IL-6 and TNF-α, in words” value (mice) was “induced IL-12 p40, IL-6, and TNF-α”, the “B cell proliferation, in words” value (CD19+ B cells; 48 h plus 8 h 3H-thymidine pulse) was “cause B cells to proliferate” and the cpm1 (CD19+ B cells; [1]) was 29280 cpm. It also gave a cpm2 (CD19+ B cells; [1]) of 33430 cpm, a cpm3 (CD19+ B cells; [1]) of 30056 cpm and a mean cpm (CD19+ B cells; B cells, Donor 146 mean, Experiment A) of 30922 cpm. The cpm1 (CD19+ B cells; [2]) was 35729 cpm, the cpm2 (CD19+ B cells; [2]) was 18032 cpm and the cpm3 (CD19+ B cells; [2]) was 21166 cpm. For the same substance, the mean cpm (CD19+ B cells; B cells, Donor 147 mean, Experiment A) was 24976 cpm, the cpm1 (CD19+ B cells; [3]) was 13678 cpm and the cpm2 (CD19+ B cells; [3]) was 12732 cpm. For the same substance, the cpm3 (CD19+ B cells; [3]) was 9003 cpm, the mean cpm (CD19+ B cells; B cells, donor 194 mean, Experiment B) was 11804 cpm and the mean of both (CD19+ B cells; B cells, mean of Donors 146 and 147, Experiment A) was 27949 cpm. For the same substance, the “mRNA expression of immune-associated genes in the lung, in words” value (mouse lung) was “potently induce the expression of a variety of genes”, the IFN (mouse splenocytes; dose 0.1 μg/ml) was 187 and the IL-12 (mouse splenocytes; dose 0.1 μg/ml) was 1665. It also gave an IFN (mouse splenocytes; dose 1.0 μg/ml) of 2175, an IL-6 (mouse splenocytes; dose 1.0 μg/ml) of 5760 and an IL-12 (mouse splenocytes; dose 1.0 μg/ml) of 4565. It also gave an IFN (mouse splenocytes; dose 5.0 μg/ml) of 2505, an IL-6 (mouse splenocytes; dose 5.0 μg/ml) of 9311 and an IL-12 (mouse splenocytes; dose 5.0 μg/ml) of 5374. It also gave a cpm1 (PBMCs; Donor 146, 2 μg/ml) of 22067 cpm, a cpm2 (PBMCs; Donor 146, 2 μg/ml) of 23740 cpm and a cpm3 (PBMCs; Donor 146, 2 μg/ml) of 28099 cpm. The mean cpm (PBMCs; Donor 146 mean) was 24635 cpm, the cpm1 (PBMCs; Donor 147, 2 μg/ml) was 26436 cpm and the cpm2 (PBMCs; Donor 147, 2 μg/ml) was 23830 cpm. The cpm3 (PBMCs; Donor 147, 2 μg/ml) was 17531 cpm, the mean cpm (PBMCs; Donor 147 mean) was 22599 cpm and the mean of both (PBMCs; mean of Donors 146 and 147, 2 μg/ml) was 23617 cpm.
